{"source": "patent US9708247B2", "about": "“Modulators of the eIF2alpha pathway” (The Regents of the University of California, priority 2013, dated 2017)", "key": {"[1]": {"system": "rabbit reticulocyte in vitro translation system", "test": "Rabbit reticulocyte in vitro translation assay (luciferase mRNA)", "format": "biochemical", "conditions": "rabbit reticulocyte lysate", "method": "FIG. 24. ISRIB enhances production of luciferase in a rabbit reticulocyte in vitro translation assay; luciferase mRNA was added to the lysates in the presence or absence of different concentrations of ISRIB; the amount of luciferase protein produced was quantitated by addition of One-Glo and the Relative luminescent units were normalized to no-addition control."}, "CHOP and GADD34 mRNA": {"system": "CHOP and GADD34 mRNA", "test": "qRT-PCR of CHOP and GADD34 mRNA in U2OS cells", "format": "cell-based, human", "conditions": "2 μg/ml tunicamycin, 200 nM ISRIB", "method": "FIGS. 4A-4B. ISRIB impairs induction of the transcriptional network controlled by ATF4; (FIG. 4A) ER-stress dependent induction of CHOP and GADD34 mRNA is impaired in cells treated with ISRIB; qPCR analysis of total RNA extracted from U2OS cells treated with 2 μg/ml of tunicamycin in the presence or absence of 200 nM ISRIB for the indicated times; mRNA levels for each sample were normalized to GAPDH (N=4); P values are derived from a one tail Student's t-test for unpaired samples; statistical significance: CHOP, P=0.0006 (*); GADD34, P=0.0008 (*); (FIG. 4B) ISRIB blocks CHOP production during ER stress; an immunofluorescence analysis of U2OS cells treated with 100 nM thapsigargin for 2 h in the presence or absence of 200 nM ISRIB is shown; a secondary Alexa Dye 488 anti-mouse antibody and rhodamine-phalloidin were used to visualize CHOP and actin, respectively.\nU2OS cells were plated on 96 well plates and allowed to recover overnight. Cells were treated for the indicated times with the indicated compounds, lysed and cDNA was synthesized using the PowerSYBR Green Cells-to-CT kit (Ambion) following the manufacturer's recommendations. The reactions were ran in an Opticon 2 thermal cycler (BioRad) and analyzed with the Opticon Monitor v3 software (BioRad). […]"}, "spatial learning": {"system": "spatial learning", "test": "Morris water maze (hidden platform, weak training)", "format": "in vivo, mouse", "conditions": "p<0.05", "method": "Eight to ten-week-old male C57BL/6J mice were used for behavioral experiments. Food and water were provided ad libitum, and mice were kept on a 12:12 h light/dark cycle (lights on at 08:00 h). All procedures complied with Canadian Council on Animal Care guidelines\nMice were trained in a water pool of 100 cm diameter with a hidden platform of 10 cm diameter. Mice were handled daily for 3 days before the experiment, and the training protocol consisted of 1 swimming trial per day. Each mouse swam until it found the hidden platform or 120 s, when it was gently guided to the platform and stayed there for 10 s before being returned to the cage. Immediately after the swimming trial the mice were injected intraperitoneally with ISRIB (0.25 mg/kg in saline, 1% DMSO). For the probe test, the platform was removed and each mouse was allowed to swim for 60 s, while its swimming trajectory was monitored with a video tracking system (HVS Image, Buckingham)."}, "IL-6": {"system": "IL-6", "test": "Serum IL-6 after surgery (ELISA)", "format": "in vivo, mouse", "conditions": "mice, perioperative administration, 24 h after surgery", "description": "FIG. 26. Experimental design for measuring postsurgical cognitive dysfunction and effects of ISRIB on cognitive function; measurement of memory is a behavioral test using trace fear conditioning (TFC), which aims to establish a permanent memory in animals by using sensorial information; associative learning is presented with a neutral conditioning stimulus, paired with an aversive unconditioning stimulus (e.g. shock); freezing by the animal corresponds to the ability of the animal to retain memory from the context in which it has been trained. Separate cohorts of animals were used to assess inflammatory status 24 h after surgery. Downwards arrows represent injection points.\nFIG. 28. […] Levels were measured using an enzyme-linked immunosorbent kit."}, "eIF2α (p-Ser51)": {"system": "eIF2α (p-Ser51)", "test": "AlphaScreen SureFire eIF2α(p-Ser51) assay in U2OS cells", "format": "cell-based, human", "conditions": "U2OS", "method": "U2OS cells were plated on 96 well plates and left to recover overnight. Cells were treated with either with 2 μg/ml tunicamycin or 100 nM thapsigargin in the presence or absence of 100 nM ISRIB or with ISRIB alone for the indicated and the level of eIF2α phosphorylation was determined using the AlphaScreen SureFire eIF2α(p-Ser51) Assay kit (Perkin Elmer) following the manufacturer's recommendations. Plates were read in an Envision Xcite Multilabel Reader using the standard Alpha Screen settings."}, "HEK293T cells": {"system": "HEK293T cells", "format": "cell-based, human", "conditions": "2 μg/mL tunicamycin plus 200 nM ISRIB, 24 h", "description": "FIGS. 5A-5D. […]"}}}
{"smiles": "O=C(COc1ccc(Cl)cc1)NC1CCC(NC(=O)COc2ccc(Cl)cc2)CC1", "note": "(stereo not drawn) [ISRIB]", "values": [{"measurement": "translation of exogenously added mRNA", "setting": "[1]", "result": "enhances translation"}, {"measurement": "induction of GADD34 and CHOP mRNAs", "setting": "CHOP and GADD34 mRNA", "result": "significantly reduced their induction"}, {"measurement": "probe test: preference for target quadrant", "setting": "spatial learning; 24 h after last training session", "result": "significantly preferred the target quadrant"}, {"measurement": "escape latency after 5 days of training", "setting": "spatial learning; mice, 0.25 mg/kg ip daily after training, vehicle 68.1+/−20 s", "result": "16.4 ± 4.8", "unit": "s"}, {"measurement": "probe test: crossing of the platform location", "setting": "spatial learning; vs vehicle", "result": "increased crossing of the platform location"}, {"measurement": "serum IL-6 increase after surgery", "setting": "IL-6", "result": "abrogated the increase in IL6"}, {"measurement": "effect on eIF2α phosphorylation, compound alone", "setting": "eIF2α (p-Ser51); no ER stress, 120 min", "result": "no effect on eIF2α phosphorylation"}, {"measurement": "effect on eIF2α phosphorylation upon ER stress", "setting": "eIF2α (p-Ser51); tunicamycin or thapsigargin plus 100 nM ISRIB", "result": "did not block eIF2α phosphorylation"}, {"measurement": "cell survival of ER-stressed cells (colony number and size)", "setting": "HEK293T cells", "result": "strong synergistic effect"}]}
